# According to ChEMBL document CHEMBL2439971, “Design, synthesis and antiproliferative evaluation of fluorenone analogs with DNA topoisomerase I inhibitory properties” (Bioorg Med Chem, 2013):
# The source made the active and inactive calls. The calls are words filed in the database; no cut-off is given here.
# How the values were obtained:
# UACC-257 = test: Cytotoxicity against human UACC257 cells at 10 uM after 48 hrs by sulforhodamine B assay relative to control; format: functional
# RPMI-8226 = test: Cytotoxicity against human RPMI8226 cells at 10 uM after 48 hrs by sulforhodamine B assay relative to control; format: functional
# SK-MEL-5 = test: Cytotoxicity against human SK-MEL-5 cells at 10 uM after 48 hrs by sulforhodamine B assay relative to control; format: functional
# NCI/ADR-RES = test: Cytotoxicity against human NCI/ADR-RES cells at 10 uM after 48 hrs by sulforhodamine B assay relative to control; format: functional
# DU-145 = test: Cytotoxicity against human DU145 cells at 10 uM after 48 hrs by sulforhodamine B assay relative to control; format: functional
# [1] = Cytotoxicity against human Hs 578T cells at 10 uM after 48 hrs by sulforhodamine B assay relative to control; format: functional
# UO-31 = test: Cytotoxicity against human UO31 cells at 10 uM after 48 hrs by sulforhodamine B assay relative to control; format: functional
# ACHN = test: Cytotoxicity against human ACHN cells at 10 uM after 48 hrs by sulforhodamine B assay relative to control; format: functional
# HCC 2998 = test: Cytotoxicity against human HCC2998 cells at 10 uM after 48 hrs by sulforhodamine B assay relative to control; format: functional
# U-251 = test: Cytotoxicity against human U251 cells at 10 uM after 48 hrs by sulforhodamine B assay relative to control; format: functional
# SF-268 = test: Cytotoxicity against human SF268 cells at 10 uM after 48 hrs by sulforhodamine B assay relative to control; format: functional
# NCI-H522 = test: Cytotoxicity against human NCI-H522 cells at 10 uM after 48 hrs by sulforhodamine B assay relative to control; format: functional
# SK-MEL-28 = test: Cytotoxicity against human SK-MEL-28 cells at 10 uM after 48 hrs by sulforhodamine B assay relative to control; format: functional
# SF-539 = test: Cytotoxicity against human SF539 cells at 10 uM after 48 hrs by sulforhodamine B assay relative to control; format: functional
# HT-29 = test: Cytotoxicity against human HT-29 cells at 10 uM after 48 hrs by sulforhodamine B assay relative to control; format: functional
# LOX IMVI = test: Cytotoxicity against human LOXIMVI cells at 10 uM after 48 hrs by sulforhodamine B assay relative to control; format: functional
# NCI-H460 = test: Cytotoxicity against human NCI-H460 cells at 10 uM after 48 hrs by sulforhodamine B assay relative to control; format: functional
# SNB-75 = test: Cytotoxicity against human SNB75 cells at 10 uM after 48 hrs by sulforhodamine B assay relative to control; format: functional
# OVCAR-5 = test: Cytotoxicity against human OVCAR5 cells at 10 uM after 48 hrs by sulforhodamine B assay relative to control; format: functional
# HL-60(TB) = test: Cytotoxicity against human HL-60(TB) cells at 10 uM after 48 hrs by sulforhodamine B assay relative to control; format: functional
# Malme-3M = test: Cytotoxicity against human MALME-3M cells at 10 uM after 48 hrs by sulforhodamine B assay relative to control; format: functional
# SK-MEL-2 = test: Cytotoxicity against human SK-MEL-2 cells at 10 uM after 48 hrs by sulforhodamine B assay relative to control; format: functional
# Homo sapiens = organism: Homo sapiens; test: Inhibition of telomerase (unknown origin) at 10 uM TRAP assay
# CAKI-1 = test: Cytotoxicity against human CAKI-1 cells at 10 uM after 48 hrs by sulforhodamine B assay relative to control; format: functional
# CCRF-CEM = test: Cytotoxicity against human CCRF-CEM cells at 10 uM after 48 hrs by sulforhodamine B assay relative to control; format: functional
# PC-3 [2] = test: Cytotoxicity against human PC3 cells after 48 hrs by sulforhodamine B assay; format: functional, cell-based; settings: PC-3, 48 h
# [3] = Cytotoxicity against human EKVX cells at 10 uM after 48 hrs by sulforhodamine B assay relative to control; format: functional
# OVCAR-8 = test: Cytotoxicity against human OVCAR8 cells at 10 uM after 48 hrs by sulforhodamine B assay relative to control; format: functional
# A549 = test: Cytotoxicity against human A549 cells at 10 uM after 48 hrs by sulforhodamine B assay relative to control; format: functional
# K562 = test: Cytotoxicity against human K562 cells at 10 uM after 48 hrs by sulforhodamine B assay relative to control; format: functional
# NCI-H226 = test: Cytotoxicity against human NCI-H226 cells at 10 uM after 48 hrs by sulforhodamine B assay relative to control; format: functional
# OVCAR-4 = test: Cytotoxicity against human OVCAR4 cells at 10 uM after 48 hrs by sulforhodamine B assay relative to control; format: functional
# MDA-MB-468 = test: Cytotoxicity against human MDA-MB-468 cells at 10 uM after 48 hrs by sulforhodamine B assay relative to control; format: functional
# KM12 = test: Cytotoxicity against human KM12 cells at 10 uM after 48 hrs by sulforhodamine B assay relative to control; format: functional
# M14 = test: Cytotoxicity against human M14 cells at 10 uM after 48 hrs by sulforhodamine B assay relative to control; format: functional
# SN12C = test: Cytotoxicity against human SN12C cells at 10 uM after 48 hrs by sulforhodamine B assay relative to control; format: functional
# MCF7 = test: Cytotoxicity against human MCF7 cells at 10 uM after 48 hrs by sulforhodamine B assay relative to control; format: functional
# SW-620 = test: Cytotoxicity against human SW620 cells at 10 uM after 48 hrs by sulforhodamine B assay relative to control; format: functional
# COLO 205 = test: Cytotoxicity against human COLO205 cells at 10 uM after 48 hrs by sulforhodamine B assay relative to control; format: functional
# MOLT-4 = test: Cytotoxicity against human MOLT4 cells at 10 uM after 48 hrs by sulforhodamine B assay relative to control; format: functional
# MDA-MB-231 = test: Cytotoxicity against human MDA-MB-231 cells at 10 uM after 48 hrs by sulforhodamine B assay relative to control; format: functional
# HOP-62 = test: Cytotoxicity against human HOP62 cells at 10 uM after 48 hrs by sulforhodamine B assay relative to control; format: functional
# IGROV-1 = test: Cytotoxicity against human IGROV1 cells at 10 uM after 48 hrs by sulforhodamine B assay relative to control; format: functional
# RXF 393 = test: Cytotoxicity against human RXF393 cells at 10 uM after 48 hrs by sulforhodamine B assay relative to control; format: functional
# UACC-62 = test: Cytotoxicity against human UACC62 cells at 10 uM after 48 hrs by sulforhodamine B assay relative to control; format: functional
# NCI-H322M = test: Cytotoxicity against human NCI-H322M cells at 10 uM after 48 hrs by sulforhodamine B assay relative to control; format: functional
# MDA-MB-435 = test: Cytotoxicity against human MDA-MB-435 cells at 10 uM after 48 hrs by sulforhodamine B assay relative to control; format: functional
# HCT-15 = test: Cytotoxicity against human HCT15 cells at 10 uM after 48 hrs by sulforhodamine B assay relative to control; format: functional
# BT-549 = test: Cytotoxicity against human BT549 cells at 10 uM after 48 hrs by sulforhodamine B assay relative to control; format: functional
# SNB-19 = test: Cytotoxicity against human SNB19 cells at 10 uM after 48 hrs by sulforhodamine B assay relative to control; format: functional
# SR = test: Cytotoxicity against human SR cells at 10 uM after 48 hrs by sulforhodamine B assay relative to control; format: functional
# HCT-116 = test: Cytotoxicity against human HCT116 cells at 10 uM after 48 hrs by sulforhodamine B assay relative to control; format: functional
# 786-0 = test: Cytotoxicity against human 786-0 cells at 10 uM after 48 hrs by sulforhodamine B assay relative to control; format: functional
# NCI-H23 = test: Cytotoxicity against human NCI-H23 cells at 10 uM after 48 hrs by sulforhodamine B assay relative to control; format: functional
# OVCAR-3 = test: Cytotoxicity against human OVCAR3 cells at 10 uM after 48 hrs by sulforhodamine B assay relative to control; format: functional
# T47D = test: Cytotoxicity against human T47D cells at 10 uM after 48 hrs by sulforhodamine B assay relative to control; format: functional
# SF-295 = test: Cytotoxicity against human SF295 cells at 10 uM after 48 hrs by sulforhodamine B assay relative to control; format: functional
# PC-3 [4] = test: Cytotoxicity against human PC3 cells at 10 uM after 48 hrs by sulforhodamine B assay relative to control; format: functional
# TK-10 = test: Cytotoxicity against human TK10 cells at 10 uM after 48 hrs by sulforhodamine B assay relative to control; format: functional
smiles,measurement,setting,value
CCCSCC(=O)Nc1ccc2c(c1)C(=O)c1cc(NC(=O)CSCCC)ccc1-2,Activity,UACC-257,137.38%
same,Activity,RPMI-8226,45.12%
same,Activity,SK-MEL-5,91.99%
same,Activity,NCI/ADR-RES,100.59%
same,Activity,DU-145,111.27%
same,Activity,[1],92.42%
same,Activity,UO-31,104.91%
same,Activity,ACHN,110.7%
same,Activity,HCC 2998,101.22%
same,Activity,U-251,82.28%
same,Activity,SF-268,121.78%
same,Activity,NCI-H522,80.15%
same,Activity,SK-MEL-28,90.58%
same,Activity,SF-539,77.18%
same,Activity,HT-29,93.31%
same,Activity,LOX IMVI,90.88%
same,Activity,NCI-H460,110.9%
same,Activity,SNB-75,88.25%
same,Activity,OVCAR-5,106.86%
same,Activity,HL-60(TB),99.03%
same,Activity,Malme-3M,107%
same,Activity,SK-MEL-2,106.67%
same,inhibition,Homo sapiens,inactive
same,Activity,CAKI-1,116.5%
same,Activity,CCRF-CEM,90.86%
same,IC50,PC-3 [2],> 30 µM
same,Activity,[3],100.02%
same,Activity,OVCAR-8,122.23%
same,Activity,A549,99.19%
same,Activity,K562,84.45%
same,Activity,NCI-H226,110.7%
same,Activity,OVCAR-4,106.85%
same,Activity,MDA-MB-468,98.19%
same,Activity,KM12,90.34%
same,Activity,M14,99.86%
same,Activity,SN12C,102.58%
same,Activity,MCF7,92.24%
same,Activity,SW-620,117.49%
same,Activity,COLO 205,111.93%
same,Activity,MOLT-4,82.96%
same,Activity,MDA-MB-231,110.09%
same,Activity,HOP-62,106.36%
same,Activity,IGROV-1,103.61%
same,Activity,RXF 393,73.43%
same,Activity,UACC-62,107.45%
same,Activity,NCI-H322M,84.33%
same,Activity,MDA-MB-435,102.08%
same,Activity,HCT-15,86.05%
same,Activity,BT-549,79.13%
same,Activity,SNB-19,102.55%
same,Activity,SR,76.63%
same,Activity,HCT-116,97.47%
same,Activity,786-0,88.03%
same,Activity,NCI-H23,98.99%
same,Activity,OVCAR-3,108.65%
same,Activity,T47D,94.56%
same,Activity,SF-295,69.6%
same,Activity,PC-3 [4],94.41%
same,Activity,TK-10,109.43%
O=C(CCN1CCOCC1)Nc1ccc2c(c1)C(=O)c1cc(NC(=O)CCN3CCOCC3)ccc1-2,Activity,UACC-257,113.13%
same,Activity,RPMI-8226,99.87%
same,Activity,SK-MEL-5,102.76%
same,Activity,NCI/ADR-RES,102.84%
same,Activity,DU-145,117.55%
same,Activity,[1],101.67%
same,Activity,UO-31,86.58%
same,Activity,ACHN,101.15%
same,Activity,HCC 2998,100.06%
same,Activity,U-251,94.41%
same,Activity,SF-268,115.57%
same,Activity,NCI-H522,102.66%
same,Activity,SK-MEL-28,104.41%
same,Activity,SF-539,107.54%
same,Activity,HT-29,111.58%
same,Activity,LOX IMVI,89.4%
same,Activity,NCI-H460,105.97%
same,Activity,SNB-75,82.97%
same,Activity,OVCAR-5,103.99%
same,Activity,HL-60(TB),112.24%
same,Activity,Malme-3M,118.44%
same,Activity,SK-MEL-2,131.96%
same,inhibition,Homo sapiens,inactive
same,Activity,CAKI-1,96.99%
same,Activity,CCRF-CEM,92.01%
same,IC50,PC-3 [2],> 30 µM
same,Activity,[3],99.88%
same,Activity,OVCAR-8,103.76%
same,Activity,A549,98.13%
same,Activity,K562,99.03%
same,Activity,NCI-H226,109.63%
same,Activity,OVCAR-4,105.22%
same,Activity,MDA-MB-468,101.73%
same,Activity,KM12,105.8%
same,Activity,M14,127.51%
same,Activity,SN12C,104.8%
same,Activity,MCF7,88.76%
same,Activity,SW-620,106.16%
same,Activity,COLO 205,105.48%
same,Activity,MOLT-4,94.98%
same,Activity,MDA-MB-231,122.26%
same,Activity,HOP-62,115.73%
same,Activity,IGROV-1,95.95%
same,Activity,RXF 393,99.09%
same,Activity,UACC-62,122.9%
same,Activity,NCI-H322M,109.97%
same,Activity,MDA-MB-435,104.2%
same,Activity,HCT-15,108.42%
same,Activity,BT-549,113.53%
same,Activity,SNB-19,110.22%
same,Activity,SR,98.5%
same,Activity,HCT-116,114.57%
same,Activity,786-0,110.24%
same,Activity,NCI-H23,94.62%
same,Activity,OVCAR-3,121.23%
same,Activity,T47D,101.34%
same,Activity,SF-295,105.19%
same,Activity,PC-3 [4],113.85%
same,Activity,TK-10,112.26%
